Test results reported in the NIST ThermoML archive (doi:10.1021/acs.jced.8b00855).
Numbers after ± are expanded uncertainties.

What was measured:
[1] = Liquid, Ebulliometric method (Recirculating still)
[2] = Boiling temperature at pressure P; conditions: Liquid, Ebulliometric method (Recirculating still)

vapor or sublimation pressure ([1]; 403.4 K) [kPa] | vapor or sublimation pressure ([1]; 405.8 K) [kPa] | vapor or sublimation pressure ([1]; 408.4 K) [kPa] | vapor or sublimation pressure ([1]; 409.8 K) [kPa] | vapor or sublimation pressure ([1]; 413.4 K) [kPa] | Boiling temperature at pressure P ([2]; 71.47 kPa) [°C] | Boiling temperature at pressure P ([2]; 78.36 kPa) [°C] | Boiling temperature at pressure P ([2]; 85.5 kPa) [°C] | Boiling temperature at pressure P ([2]; 89.49 kPa) [°C] | Boiling temperature at pressure P ([2]; 102 kPa) [°C] | vapor or sublimation pressure ([1]; 367.9 K) [kPa] | vapor or sublimation pressure ([1]; 370.6 K) [kPa] | vapor or sublimation pressure ([1]; 373.6 K) [kPa] | vapor or sublimation pressure ([1]; 375.1 K) [kPa] | vapor or sublimation pressure ([1]; 379.3 K) [kPa] | Boiling temperature at pressure P ([2]; 72.04 kPa) [°C] | Boiling temperature at pressure P ([2]; 78.83 kPa) [°C] | Boiling temperature at pressure P ([2]; 85.94 kPa) [°C] | Boiling temperature at pressure P ([2]; 89.82 kPa) [°C] | Boiling temperature at pressure P ([2]; 101.39 kPa) [°C] | Structure (SMILES)
71.5 ± 2.7 | 77.95 ± 2.8 | 85.5 ± 2.9 | 89.69 ± 3.3 | 101.79 ± 3.4 | 130.2 ± 1 | 133.1 ± 1 | 135.5 ± 1 | 136.2 ± 1 | 140.5 ± 1 | – | – | – | – | – | – | – | – | – | – | OC1CCCC1 [cyclopentanol]
– | – | – | – | – | – | – | – | – | – | 71.5 ± 2.4 | 77.95 ± 2.5 | 85.5 ± 2.6 | 89.69 ± 2.9 | 101.79 ± 2.9 | 95.1 ± 1 | 98.1 ± 1 | 100.2 ± 1 | 102.2 ± 1 | 106.1 ± 1 | COC1CCCC1 [methoxycyclopentane]
